Consider two compounds from patent US4309559A, “Sulphonamides useful as pesticides” (FBC Limited, priority 1977, dated 1982).

Type in all cases: in vivo
The test system of assay [1] is Peas (Pisum sativum). The experiment in a line: Post-emergence foliar spray, herbicidal/growth regulant response, peas. The note with it: Lathyrus oleraceus, 168 h, foliar spray 11.2 kg/ha, 7 days, 0=no effect, 100=complete kill, read-out: herbicidal or growth regulant response index. Here is the method: (§1) Seeds of the plant species listed below were sown in anodised aluminium pans, 19 cm long×9.5 cm wide×5 cm deep, containing John Innes I potting compost. They were then watered and placed in a controlled environment room (22° C.; 65-85% relative humidity; 14 hours per day artificial illumination at 13,000 lux). Fourteen days after sowing, the seedlings received a foliar spray of a compound listed below, formulated as a solution in 1:1 by volume aqueous acetone. The concentration of active ingredient and volume of application were adjusted so as to be equivalent to a rate of 11.2 kg/ha in 450 liters per hectare. After seven days growth in the controlled environment room, the plants were visually assessed for any herbicidal or growth regulant response. All differences from the untreated control were scored according to an index where 0=no effect and 100=complete kill.
(§2) The product of Example 95 was tested according to the procedure of Examples 49-55.

Assay [2] has as its system Mustard (Sinapis alba). The assay can be described thus: Post-emergence foliar spray, herbicidal/growth regulant response, mustard. The following applies: 168 h, foliar spray 11.2 kg/ha, 7 days, 0=no effect, 100=complete kill, read-out: herbicidal or growth regulant response index. Here is the method: as §1, §2
Assay [3] deals with Linseed (Linum usitatissimum). The assay can be described thus: Post-emergence foliar spray, herbicidal/growth regulant response, linseed. The note with it: 168 h, foliar spray 11.2 kg/ha, 7 days, 0=no effect, 100=complete kill, read-out: herbicidal or growth regulant response index. Here is the method:
as §1, §2

For assay [4], the system named is Ryegrass (Lolium perenne). The assay can be described thus: Post-emergence foliar spray, herbicidal/growth regulant response, ryegrass. The following applies: 168 h, foliar spray 11.2 kg/ha, 7 days, 0=no effect, 100=complete kill, read-out: herbicidal or growth regulant response index. How it is done: as §1, §2
For assay [5], the system named is Sugarbeet (Beta vulgaris). The experiment in a line: Post-emergence foliar spray, herbicidal/growth regulant response, sugarbeet. The note with it: 168 h, foliar spray 11.2 kg/ha, 7 days, 0=no effect, 100=complete kill, read-out: herbicidal or growth regulant response index. How it is done:
as §1, §2

Assay [6] concerns Oat (Avena sativa). The experiment in a line: Post-emergence foliar spray, herbicidal/growth regulant response, oat. The note with it: 168 h, foliar spray 11.2 kg/ha, 7 days, 0=no effect, 100=complete kill, read-out: herbicidal or growth regulant response index. Here is the method: as §1, §2
For assay [7], the system named is Peas (Pisum sativum). The assay can be described thus: Soil incorporation (attaclay/sand dust), growth regulatory or herbicidal effects, peas. The note with it: Lathyrus oleraceus, 504 h, soil incorporation 130 ppm, 21 days, 0=no effect, 100=complete kill/suppression, read-out: growth regulatory or herbicidal effect score. The text has this:
(§3) The compounds listed below were each formulated as an attaclay/sand dust and incorporated into John Innes I potting compost at a rate equivalent to 26 parts per million weight/volume of active ingredient to soil and placed in anodised aluminium pans, 19 cm long×9.5 cm wide×5.0 cm deep. This rate is approximately equivalent to a soil surface application of 11.2 kg active ingredient/hectare cultivated to a depth of 5 cm. Seeds of the species listed below were sown in the treated soil, watered and placed in a controlled environment room (22° C.; 65-85% relative humidity; 14 hours per day artificial illumination at 13,000 lux) for 21 days. The plants were then visually assessed for any growth regulatory or herbicidal effects. All differences from an untreated control were scored on a scale from 0-100, where 0 signifies no effect and 100 signifies complete kill.
(§4) The compounds listed below were tested according to the procedure of Examples 56-60 but at 130 parts per million weight/volume of active ingredient to soil. This rate is approximately equivalent to a soil surface application of 56 kg active ingredient per hectare cultivated to a depth of 5 cm.
(§5) The product of Example 95 was tested according to the procedure of Examples 56-60 but at 130 and 26 parts per million weight/volume. The results were as follows:
(§6) N-(2-oxopropyl)-2'-chloro-6'-methyl-methanesulphonanilide, formulated as an attaclay/sand dust, was incorporated in John Innes I potting compost at a rate equivalent to 130 parts per million weight/volume of active ingredient to soil and placed in anodised aluminium pans, 19 cm long×9.5 cm wide×5.0 cm deep. These rates are approximately equivalent to a soil surface application of 56 kg active ingredient per hectare cultivated to a depth of 5 cm. Seeds of Peas, Mustard, Linseed, Maize, Oats and Ryegrass were sown in the treated soil, watered and placed in a controlled environment room (22° C.; 65-85% relative humidity; 14 hours artificial illumination at 13000 lux) for 21 days.
(§7) The plants were then visually assessed for any growth regulatory or herbicidal effects. All differences from an untreated control were scored on a scale from 0-100, where 0 signifies no effect and 100 signifies complete suppression.

Assay [8] deals with Mustard (Sinapis alba). The experiment in a line: Soil incorporation (attaclay/sand dust), growth regulatory or herbicidal effects, mustard. The following applies: 504 h, soil incorporation 130 ppm, 21 days, 0=no effect, 100=complete kill/suppression, read-out: growth regulatory or herbicidal effect score.
From the text: as §3, §4, §5, §6, §7

Assay [9] relates to Linseed (Linum usitatissimum). The assay can be described thus: Soil incorporation (attaclay/sand dust), growth regulatory or herbicidal effects, linseed. The following applies: 504 h, soil incorporation 130 ppm, 21 days, 0=no effect, 100=complete kill/suppression, read-out: growth regulatory or herbicidal effect score.
From the text: as §3, §4, §5, §6, §7

Assay [10] has as its system Maize (Zea mays). The assay can be described thus: Soil incorporation (attaclay/sand dust), growth regulatory or herbicidal effects, maize. The note with it: 504 h, soil incorporation 130 ppm, 21 days, 0=no effect, 100=complete kill/suppression, read-out: growth regulatory or herbicidal effect score.
From the text: as §3, §4, §5, §6, §7

For assay [11], the system named is Oats (Avena sativa). The experiment in a line: Soil incorporation (attaclay/sand dust), growth regulatory or herbicidal effects, oats. The following applies: 504 h, soil incorporation 130 ppm, 21 days, 0=no effect, 100=complete kill/suppression, read-out: growth regulatory or herbicidal effect score.
From the text: as §3, §4, §5, §6, §7

Assay [12] deals with Ryegrass (Lolium perenne). The assay can be described thus: Soil incorporation (attaclay/sand dust), growth regulatory or herbicidal effects, ryegrass. The following applies: 504 h, soil incorporation 130 ppm, 21 days, 0=no effect, 100=complete kill/suppression, read-out: growth regulatory or herbicidal effect score.
From the text: as §3, §4, §5, §6, §7

As to `CCOC(=O)C(C)N(c1ccccc1Cl)S(C)(=O)=O` (stereo not drawn) [Example 25], the pest or weed control at 11200 g/ha in assay [1] stood at 5%; in assay [2] it was 80%; in assay [3] it was 20%; in assay [4], 0%. Moreover, the plant injury at 11200 g/ha in assay [5] is 30%; in [6], 20%. For the same compound, the pest or weed control at 130 µg/mL in [7] was determined as 5%; in assay [8], 100%; in [9], 50%; in assay [12] it was 0%. Besides, the plant injury at 130 µg/mL is 40% in assay [10] and 20% in assay [11].

For the compound `CCCCS(=O)(=O)N(c1c(C)cccc1C)C(C)C(=O)OCC` (stereo not drawn) [Example 27], the pest or weed control at 11200 g/ha was determined as 5% in assay [1], 100% in assay [2], 70% in assay [3] and 20% in assay [4]. The plant injury at 11200 g/ha was found to be 90% in assay [5] and 30% in assay [6]. Besides, the pest or weed control at 130 µg/mL in assay [7] came out at 20%; in assay [8] it was 100%; in [9] it was 100%; in [12] it was 100%. The plant injury at 130 µg/mL in assay [10] and in assay [11] was 100% in each case.
